Test results taken from patent US12692274B2, “Tetrahydroisoquinoline derivatives for the treatment of red blood disorders and inflammatory diseases” (Sanofi, priority 2020, dated 2026).
“And” between values parts separate entries of the source, which are not always exact repeats. Equal entries are not always repeated.

Key:
[1] = test system: NQO1 activation in BEAS-2B cells; experiment: BEAS-2B cellular MTT assay of NQO1 activation, 0% HSA; type: cell-based
Procedure, shortened: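 BEAS-2B cells grown in BEBM with BEGM SingleQuots (no GA-1000), kept below 70% confluence, seeded on collagen plates at a density giving 95-100% confluence after 48 h. Plates seeded in medium without HSA (0% HSA condition).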

[2] = test system: NQO1 activation in BEAS-2B cells; experiment: BEAS-2B cellular MTT assay of NQO1 activation, 0.3% HSA; type: cell-based
Procedure, shortened: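 BEAS-2B cells (<70% confluent in culture, BEBM/SingleQuots without GA-1000) seeded in collagen plates with 0.3% or 0% HSA, reaching 95-100% confluency after 48 h at 37 °C, 5% CO2; MTT read-out.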

[3] = target: HIS-Keap1 full length / Biotin-Nrf2 (16-mer) (Homo sapiens, UniProt Q14145); experiment: biochemical
Sequence of HIS-Keap1 full length / Biotin-Nrf2 (16-mer) (Q14145 whole entry): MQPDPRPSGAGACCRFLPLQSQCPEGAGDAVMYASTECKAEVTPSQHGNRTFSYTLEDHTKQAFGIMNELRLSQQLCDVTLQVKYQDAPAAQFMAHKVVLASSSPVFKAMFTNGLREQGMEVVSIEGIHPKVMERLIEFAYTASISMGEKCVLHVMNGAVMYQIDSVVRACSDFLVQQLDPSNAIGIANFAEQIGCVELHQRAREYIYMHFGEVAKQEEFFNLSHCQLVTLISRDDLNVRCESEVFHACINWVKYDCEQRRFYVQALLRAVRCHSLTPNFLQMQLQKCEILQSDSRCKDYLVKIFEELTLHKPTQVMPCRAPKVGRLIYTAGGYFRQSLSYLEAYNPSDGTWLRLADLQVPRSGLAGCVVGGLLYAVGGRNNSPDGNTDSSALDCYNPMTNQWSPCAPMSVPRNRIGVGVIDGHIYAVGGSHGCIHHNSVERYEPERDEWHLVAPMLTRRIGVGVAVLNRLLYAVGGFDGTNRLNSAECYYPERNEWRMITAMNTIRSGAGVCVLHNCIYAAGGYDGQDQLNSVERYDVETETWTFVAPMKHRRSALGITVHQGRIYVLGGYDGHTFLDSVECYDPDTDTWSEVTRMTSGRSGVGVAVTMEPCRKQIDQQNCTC

[4] = Homo sapiens, Serum Free W, read-out: BEAS EC50 (nM) Serum Free W
[5] = BEAS+ W, read-out: BEAS+ W EC50
[6] = Homo sapiens, BEAS+ W, read-out: BEAS+ W EC50
[7] = Homo sapiens, serum free, read-out: BEAS EC50 (nM) serum free
[8] = serum free, read-out: BEAS EC50 (nM) serum free
[9] = Homo sapiens, BEAS+, read-out: BEAS+ EC50
[10] = Serum Free W, read-out: BEAS EC50 (nM) Serum Free W

Cc1c2ccc3c1nnn3CCCCCCc1ccc(c(F)c1)C(=O)N1CCc3ccc(cc3C1)[C@H]2[C@H](C)C(=O)O [Compound 166]
EC50 [1, 4]: 1.1 nM | EC50 [2, 5]: 2.7 nM and 2.9 nM and 4.2 nM | EC50 [2, 6]: 2.2 nM | IC50 [3]: 0.7 nM and 0.6 nM

C[C@@H](C(=O)O)[C@H]1c2ccc3c(c2)CN(CC3)C(=O)c2c(F)cc(cc2F)OCCCCCCn2nnc3cc1ccc32 [Compound 258]
EC50 [1, 7]: 9080 nM | EC50 [1, 8]: 9480 nM | EC50 ([2]; BEAS+, read-out: BEAS+ EC50): 2530 nM | EC50 [2, 9]: 2640 nM | IC50 [3]: 4.9 nM

Cc1c2ccc3c1nnn3CCCCCCOc1ccc(cc1)C(=O)N1CCc3ccc(cc3C1)[C@H]2[C@@H](C)C(=O)O [Compound 155]
EC50 [1, 7]: > 10000 nM | EC50 [2, 9]: > 10000 nM | IC50 [3]: 734 nM and 514 nM

Cc1c2ccc3c1nnn3CCCCCc1ccc(cc1)C(=O)N1CCc3ccc(cc3C1)[C@H]2[C@H](C)C(=O)O [Compound 133]
EC50 [1, 4]: 16 nM | EC50 [1, 10]: 31 nM | EC50 [2, 5]: 38.9 nM | EC50 [2, 6]: 39.4 nM | IC50 [3]: 1.4 nM and 1.3 nM

COCCn1c2cc3cc(ccc31)CCCCCCn1nnc3c(C)c(ccc31)[C@@H](CC(=O)O)c1ccc3c(c1)CN(CC3)C2=O [Compound 85]
EC50 [1, 4]: 39.4 nM | EC50 [1, 10]: 61.3 nM | EC50 [2, 5]: 244 nM | EC50 [2, 6]: 249 nM | IC50 [3]: 1.6 nM and 1.2 nM

O=C(O)CC1c2cnc(nc2)OCCCCOc2ccc(cc2)C(=O)N2CCc3ccc1cc3C2 (centres unmarked) [Compound 183]
EC50 [1, 4]: > 1000 nM | EC50 [2, 6]: > 10000 nM | IC50 [3]: 642 nM and 571 nM

Cc1c2ccc3c1nnn3CCCCCCOc1ccc(cn1)C(=O)N1CCc3ccc(cc3C1)C2CC(=O)O (centres unmarked) [Compound 378]
EC50 [1, 7]: 133 nM | EC50 [1, 8]: 139 nM | EC50 ([2]; BEAS+, read-out: BEAS+ EC50): 155 nM | EC50 [2, 9]: 213 nM | IC50 [3]: 7.7 nM and 8 nM

Cc1cc2cc3c1CCN(C3)C(=O)c1ccc(cc1)CCCCCn1nnc3c(C)c(cnc31)C2CC(=O)O (centres unmarked) [Compound 105]
EC50 [1, 4]: 3.9 nM | EC50 [1, 10]: 4.2 nM | EC50 [2, 5]: 9.1 nM | EC50 [2, 6]: 11.6 nM | IC50 [3]: 0.8 nM

Cc1c2ccc3c1nnn3CCCCCc1ccc(cc1OC(F)F)C(=O)N1CCc3ccc(cc3C1)[C@@H]2CC(=O)O [Compound 38]
EC50 [1, 4]: 4.8 nM | EC50 [1, 10]: 4.5 nM | EC50 [2, 5]: 17 nM | EC50 [2, 6]: 15 nM | IC50 [3]: 0.4 nM and 0.3 nM

Cc1c2ccc3c1nnn3CCCCCc1cnc3c(c1)cc(n3C)C(=O)N1CCc3ccc(cc3C1)[C@@H]2CC(=O)O [Compound 112]
EC50 [1, 4]: 2.9 nM | EC50 [1, 10]: 2.7 nM | EC50 [2, 5]: 25.5 nM | EC50 [2, 6]: 23 nM | IC50 [3]: 0.3 nM

Cc1c2ccc3c1nnn3CCCCCCc1ccc(cc1)C(=O)N1CCc3ccc(cc3C1)[C@H]2[C@H](C)C(=O)O [Compound 134]
EC50 [1, 4]: 56.5 nM | EC50 [1, 7]: 22.6 nM | EC50 [1, 10]: 90.8 nM | EC50 [1, 8]: 20.2 nM | EC50 [2, 5]: 203 nM | EC50 ([2]; BEAS+, read-out: BEAS+ EC50): 72.8 nM | EC50 [2, 6]: 143 nM | EC50 [2, 9]: 80.5 nM | IC50 [3]: 3.8 nM (2×) and 10.4 nM and 9.8 nM

Cc1c2ccc3c1nnn3C/C=C/COCc1ccc(c(F)c1)C(=O)N1CCc3ccc(cc3C1)C2CC(=O)O (centres unmarked) [Compound 386]
EC50 [1, 7]: 90.3 nM | EC50 [1, 8]: 89 nM | EC50 ([2]; BEAS+, read-out: BEAS+ EC50): 105 nM | EC50 [2, 9]: 123 nM | IC50 [3]: 1.9 nM and 2 nM

Cc1c2ccc3c1nnn3CCCCCCOc1ncc(cn1)C(=O)N1CCc3ccc(cc3C1)C2CC(=O)O (centres unmarked) [Compound 377]
EC50 [1, 7]: 2940 nM | EC50 [1, 8]: 2650 nM | EC50 ([2]; BEAS+, read-out: BEAS+ EC50): 3210 nM | EC50 [2, 9]: 3170 nM | IC50 [3]: 5.7 nM and 5.8 nM

C[C@H](C(=O)O)[C@@H]1c2ccc(nc2)OCCCCCc2cc(F)c(c(F)c2)C(=O)N2CCc3ccc1cc3C2 [Compound 162]
EC50 [1, 7]: 0.6 nM | EC50 [2, 9]: 0.8 nM | IC50 [3]: 2.1 nM and 2 nM

Cc1cc2ccc1C(=O)N1CCc3ccc(cc3C1)[C@@H]([C@H](C)C(=O)O)c1ccc3c(c1)nnn3CCCCCCO2 [Compound 294]
EC50 [1, 7]: 450 nM | EC50 [2, 9]: 809 nM | IC50 [3]: 22.1 nM and 17.3 nM

Cc1cc2ncc1[C@H](CC(=O)O)c1ccc3c(c1)CN(CC3)C(=O)c1ccc(cc1)CCOCCO2 [Compound 350]
EC50 [1, 4]: 161 nM | EC50 [1, 10]: 145 nM | EC50 [2, 5]: 426 nM | EC50 [2, 6]: 276 nM | IC50 [3]: 11.5 nM and 10.1 nM and 9.8 nM and 10.2 nM

Cc1c2ccc3c1nnn3CCCCCCc1ccc(cc1F)C(=O)N1CCc3ccc(cc3C1)C2CC(=O)O (centres unmarked) [Compound 264]
EC50 [1, 7]: 3.7 nM | EC50 [2, 9]: 5.4 nM | IC50 [3]: 2.7 nM and 2.9 nM

COc1cc2ccc1CCCCCn1nnc3c(C)c(cnc31)[C@H](CC(=O)O)c1ccc3c(c1)CN(CC3)C2=O [Compound 87]
EC50 [1, 4]: 13 nM | EC50 [1, 10]: 18.2 nM | EC50 [2, 5]: 38.1 nM | EC50 [2, 6]: 40.5 nM | IC50 [3]: 0.8 nM and 0.9 nM
